Experimental data as given in article PMC12555108, “In‐vitro Assessment of BCRP‐Mediated Efflux of Antiseizure Medications in Human Blood‐Brain Barrier Cell Model” (Journal of Biochemical and Molecular Toxicology, 2025).

Experiments:
[1] = target: T1, BCRP (Homo sapiens, UniProt Q9UNQ0); set-up: host or cells: MCF-7 cells overexpressing BCRP; settings: previous study; cited from earlier work
T1 sequence (Q9UNQ0 1-655): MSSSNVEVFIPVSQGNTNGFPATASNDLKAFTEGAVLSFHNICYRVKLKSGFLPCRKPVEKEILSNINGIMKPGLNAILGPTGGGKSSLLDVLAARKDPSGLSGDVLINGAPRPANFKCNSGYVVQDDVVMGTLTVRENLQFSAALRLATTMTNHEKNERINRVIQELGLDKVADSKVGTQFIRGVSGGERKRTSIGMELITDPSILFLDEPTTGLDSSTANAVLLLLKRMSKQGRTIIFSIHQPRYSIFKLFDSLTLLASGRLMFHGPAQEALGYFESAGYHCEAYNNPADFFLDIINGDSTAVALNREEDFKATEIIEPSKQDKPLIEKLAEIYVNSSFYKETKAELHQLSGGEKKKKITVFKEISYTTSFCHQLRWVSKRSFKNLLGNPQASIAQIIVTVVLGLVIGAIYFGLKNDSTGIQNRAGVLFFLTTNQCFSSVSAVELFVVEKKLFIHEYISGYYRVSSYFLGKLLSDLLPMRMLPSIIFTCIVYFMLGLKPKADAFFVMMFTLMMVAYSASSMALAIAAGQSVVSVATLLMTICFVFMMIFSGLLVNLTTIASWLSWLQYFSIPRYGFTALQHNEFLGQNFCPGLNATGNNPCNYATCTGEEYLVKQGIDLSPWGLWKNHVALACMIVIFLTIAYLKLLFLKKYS

[2] = target: T1, BCRP; settings: previous data; cited from earlier work
[3] = target: T1, BCRP; experiment: bidirectional transport assay across hCMEC/D3 cell monolayer with or without Ko143; settings: for transport by BCRP (conclusion of bidirectional transport assay): ER ≥ 1.5 and significantly reduced by Ko143; for Papp A→B at 2 h, 40 μM / Papp A→B at 2 h, 80 μM / Papp B→A at 2 h, 40 μM / Papp B→A at 2 h, 80 μM / efflux ratio at 2 h, 40 μM / efflux ratio at 2 h, 80 μM / Papp A→B at 2 h, 300 µM / Papp A→B at 2 h, 600 μM / Papp B→A at 2 h, 300 µM / Papp B→A at 2 h, 600 μM / efflux ratio at 2 h / efflux ratio at 2 h, 300 µM / efflux ratio at 2 h, 600 μM: human
Protocol: For transport assays, hCMEC/D3 cells were seeded on collagen type I‐coated Transwell inserts (polycarbonate 12‐well, pore size […]) (cat. no. CLS3460; Corning, NY, USA) at 80% confluency and cultured as described in section 2.5. In brief, the drug was dissolved in Hanks’ balanced salt solution supplemented with 10 mM HEPES, 1 mM Na‐Pyruvate, pH 7.4 at 37°C (transport buffer). Initially, both sides of the chamber were washed with 1X PBS and the assay was performed with pre‐warmed transport buffer. 0.5 ml or 1.5 ml of the drug solution, with or without BCRP‐specific inhibitor Ko143 (1 μM) was added to either the apical side or basolateral side of the monolayer, respectively, and fresh transport buffer was added to the opposite side. Aliquots of 100 μl samples were taken from the opposite sides every 30 min for 2 h, and the same amount of fresh transport buffer was added to the same chamber after each sampling. […] Concentrations of ASMs were evaluated by HPLC or LC/MS. Apparent permeability (Papp) is defined as the transport rate of ASM and efflux ratio (ER) was calculated as the ratio of Papp in the basolateral‐to‐apical (Papp(B→A)) direction to the Papp in the apical‐to‐basolateral (Papp(A→B)) direction. The samples were stored at −20°C until analysis. […] Fluorescence detection of lucifer yellow (excitation at 430 nm, and emission at 535 nm) was carried out with Infinite 200 PRO NanoQuant (Tecan, Zurich, Switzerland). […] All transport assays were performed in triplicate.
The calculation for apparent permeability coefficient, Papp, was performed as described before. Papp=dQr/dt/A×C0 where dQr/dt is the cumulative amount in the receiver side vs time in μM/s
A is the area of the cell monolayer
C0 is the initial concentration of the dosing solution (μM).
And, Efflux ratio=Papp(B−to−A)/Papp(A−to−B)

[4] = set-up: method as in Johannessen, 2004; Patsalos, 2008; Lee, 2016; settings: patients with epilepsy; ref Johannessen, 2004; Patsalos, 2008; Lee, 2016; cited from earlier work
[5] = target: T1, BCRP; experiment: competitive substrate efflux assay (BODIPY-prazosin accumulation) in hCMEC/D3 cells; type: cell-based; settings: 1 and 10 µM
Protocol: The potential of ASMs to compete with a known fluorescent substrate of BCRP, BPZ in hCMEC/D3 cells was examined using a competitive substrate efflux assay that has previously been used in various studies. The interaction of CBZ, DCLB, OXC, TPM, and LEVI with BCRP was evaluated. Initially, hCMEC/D3 were seeded in 12‐well plates (cat. no. 150628, Nunc, Thermo Fisher Scientific, MA, USA) at 70‐80% confluency for 24 h. In this study, Ko143 was used for BCRP inhibition. The cultured cells were incubated at 37°C for half an hour in media containing BPZ with either the test ASMs or Ko143. Cells were washed with chilled 1X PBS three times and again incubated at 37°C for 1 h 30 min in BPZ‐free media with or without Ko143. Cells were washed three times with ice‐cold 1X PBS to terminate the assay. Cell lysis was performed by adding 1% triton X‐100, followed by incubating the cells for 15 min at 37°C. 20 µl of cell lysate was placed in 384‐well black assay plates for fluorescence detection (excitation at 488 nm; emission at 530 nm) to Infinite 200 PRO NanoQuant (Tecan, Zurich, Switzerland). The rest of the cell lysate was used for determining protein levels using the BCA protein estimation method to normalize the observed fluorescence intensity with total protein yield. The data were shown as a fold increment in intracellular fluorescence of BPZ relative to the control.

[6] = target: T1, BCRP; experiment: vanadate-sensitive BCRP ATPase assay (membrane vesicles from MCF-7 cells overexpressing BCRP); type: biochemical; set-up: host or cells: MCF-7 cells overexpressing BCRP; settings: […] µM
Protocol: To assess the interaction between ASMs and BCRP, a vanadate‐sensitive ATPase assay was performed as per the manufacturer's instructions manual. […] After 10 min, 1x developer solution was added and kept for 2 min. To stop the reaction, 100 µL blocker solution was added and incubated for 30 min. at 37°C. The optical densities were measured at 620 nm using an Infinite 200 PRO NanoQuant (Tecan, Zurich, Switzerland) plate reader. 1 μM Ko143 was used as a positive control for BCRP inhibition. Ko143 was used at a concentration that is known to inhibit BCRP efficiently. The results were expressed as vanadate‐sensitive ATPase activity that is based on the difference in inorganic phosphate released between samples with and without vanadate. This will evaluate the ability of the test ASM to stimulate BCRP's baseline ATPase activity.

[7] = 5 μM, hCMEC/D3 monolayer, 1 μM Ko143
[8] = 10 μM, hCMEC/D3 monolayer, 1 μM Ko143

O=C1NC(=O)C(c2ccccc2)(c2ccccc2)N1 [PHT, phenytoin]
stimulation of BCRP ATPase activity [1]: stimulated | BPZ accumulation in competitive substrate efflux assay in hCMEC/D3 cells [2]: increased BPZ accumulation | Efflux ratio (ER), hCMEC/D3 without inhibitor Ko143 ([3]; 80 μM, hCMEC/D3 monolayer): 1.53 | transport by BCRP (conclusion of bidirectional transport assay) ([3]; hCMEC/D3 monolayer): not | Papp A→B at 2 h, 40 μM ([3]; pH 7.4): 2.12 ×10⁻⁶ cm/s | Papp A→B at 2 h, 80 μM ([3]; pH 7.4): 3.09 ×10⁻⁶ cm/s | Papp B→A at 2 h, 40 μM ([3]; pH 7.4): 2.59 ×10⁻⁶ cm/s | Papp B→A at 2 h, 80 μM ([3]; pH 7.4): 3.36 ×10⁻⁶ cm/s | efflux ratio at 2 h, 40 μM ([3]; pH 7.4, Efflux ratio (ER), hCMEC/D3 without inhibitor Ko143, 40 μM, hCMEC/D3 monolayer): 1.28 | efflux ratio at 2 h, 80 μM ([3]; pH 7.4, Efflux ratio (ER), hCMEC/D3 without inhibitor Ko143, 80 μM, hCMEC/D3 monolayer): 1.5 | Papp A→B at 2 h, 40 μM ([3]; pH 7.4, with Ko143 1 μM): 2.71 ×10⁻⁶ cm/s | Papp A→B at 2 h, 80 μM ([3]; pH 7.4, with Ko143 1 μM): 2.03 ×10⁻⁶ cm/s | Papp B→A at 2 h, 40 μM ([3]; pH 7.4, with Ko143 1 μM): 3.07 ×10⁻⁶ cm/s | Papp B→A at 2 h, 80 μM ([3]; pH 7.4, with Ko143 1 μM): 2.12 ×10⁻⁶ cm/s | efflux ratio at 2 h, 40 μM ([3]; pH 7.4, with Ko143 1 μM, Efflux ratio (ER), hCMEC/D3 with inhibitor Ko143, 40 μM, hCMEC/D3 monolayer, 1 μM Ko143): 1.17 | efflux ratio at 2 h, 80 μM ([3]; pH 7.4, with Ko143 1 μM, Efflux ratio (ER), hCMEC/D3 with inhibitor Ko143, 80 μM, hCMEC/D3 monolayer, 1 μM Ko143): 1.31 | Therapeutic plasma concentration range [4]: 40 to 80 µM

CCCC(CCC)C(=O)O [VPA, valproic acid]
stimulation of BCRP ATPase activity [1]: stimulated | BPZ accumulation in competitive substrate efflux assay in hCMEC/D3 cells [2]: increased BPZ accumulation | transport by BCRP (conclusion of bidirectional transport assay) ([3]; hCMEC/D3 monolayer): transports | Papp A→B at 2 h, 300 µM ([3]; pH 7.4): 0.19 ×10⁻⁶ cm/s | Papp A→B at 2 h, 600 μM ([3]; pH 7.4): 0.34 ×10⁻⁶ cm/s | Papp B→A at 2 h, 300 µM ([3]; pH 7.4): 0.31 ×10⁻⁶ cm/s | Papp B→A at 2 h, 600 μM ([3]; pH 7.4): 0.64 ×10⁻⁶ cm/s | efflux ratio at 2 h ([3]; pH 7.4, Efflux ratio (ER) without inhibitor, at all the tested concentrations, hCMEC/D3 monolayer): > 1.5 | efflux ratio at 2 h, 300 µM ([3]; pH 7.4, Efflux ratio (ER), hCMEC/D3 without inhibitor Ko143, 300 μM, hCMEC/D3 monolayer): > 1.5 | efflux ratio at 2 h, 600 μM ([3]; pH 7.4, Efflux ratio (ER), hCMEC/D3 without inhibitor Ko143, 600 μM, hCMEC/D3 monolayer): > 1.5 | Papp A→B at 2 h, 300 µM ([3]; pH 7.4, with Ko143 1 μM): 0.21 ×10⁻⁶ cm/s | Papp A→B at 2 h, 600 μM ([3]; pH 7.4, with Ko143 1 μM): 0.33 ×10⁻⁶ cm/s | Papp B→A at 2 h, 300 µM ([3]; pH 7.4, with Ko143 1 μM): 0.24 ×10⁻⁶ cm/s | Papp B→A at 2 h, 600 μM ([3]; pH 7.4, with Ko143 1 μM): 0.37 ×10⁻⁶ cm/s | efflux ratio at 2 h ([3]; pH 7.4, with Ko143 1 µM, Efflux ratio (ER) in the presence of Ko143, at all the tested concentrations, hCMEC/D3 monolayer, 1 μM Ko143): ~1 | efflux ratio at 2 h, 300 µM ([3]; pH 7.4, with Ko143 1 µM, Efflux ratio (ER), hCMEC/D3 with inhibitor Ko143, 300 μM, hCMEC/D3 monolayer, 1 μM Ko143): 1.1 | efflux ratio at 2 h, 600 μM ([3]; pH 7.4, with Ko143 1 μM, Efflux ratio (ER), hCMEC/D3 with inhibitor Ko143, 600 μM, hCMEC/D3 monolayer, 1 μM Ko143): 1.14 | Therapeutic plasma concentration range [4]: 300 to 600 µM

O=C1CC(=O)N(c2ccccc2)c2cc(Cl)ccc2N1 [DCLB, N‐desmethyl clobazam]
Efflux ratio (ER), hCMEC/D3 without inhibitor Ko143 ([3]; 5 μM, hCMEC/D3 monolayer): 2 | Papp A-->B, hCMEC/D3 without inhibitor Ko143 ([3]; 5 μM, hCMEC/D3 monolayer): 2.83 ×10⁻⁶ cm/s | Papp B-->A, hCMEC/D3 without inhibitor Ko143 ([3]; 5 μM, hCMEC/D3 monolayer): 5.66 ×10⁻⁶ cm/s | Efflux ratio (ER), hCMEC/D3 with inhibitor Ko143 [3, 7]: ~1 | Papp A-->B, hCMEC/D3 with inhibitor Ko143 [3, 7]: 5.66 ×10⁻⁶ cm/s | Papp B-->A, hCMEC/D3 with inhibitor Ko143 [3, 7]: 5.66 ×10⁻⁶ cm/s | Efflux ratio (ER), hCMEC/D3 without inhibitor Ko143 ([3]; 5 μM, hCMEC/D3 monolayer, listed as N‐desmethyl clobazam): 2.0 | Efflux ratio (ER), hCMEC/D3 without inhibitor Ko143 ([3]; 10 μM, hCMEC/D3 monolayer): 2 | Papp A-->B, hCMEC/D3 without inhibitor Ko143 ([3]; 10 μM, hCMEC/D3 monolayer): 2.83 ×10⁻⁶ cm/s | Papp B-->A, hCMEC/D3 without inhibitor Ko143 ([3]; 10 μM, hCMEC/D3 monolayer): 5.66 ×10⁻⁶ cm/s | Efflux ratio (ER), hCMEC/D3 with inhibitor Ko143 [3, 8]: ~1 | Papp A-->B, hCMEC/D3 with inhibitor Ko143 [3, 8]: 2.83 ×10⁻⁶ cm/s | Papp B-->A, hCMEC/D3 with inhibitor Ko143 [3, 8]: 2.83 ×10⁻⁶ cm/s | Efflux ratio (ER), hCMEC/D3 without inhibitor Ko143 ([3]; 10 μM, hCMEC/D3 monolayer, listed as N‐desmethyl clobazam): 2.0 | Efflux ratio (ER) without inhibitor ([3]; at all the tested concentrations, hCMEC/D3 monolayer): above 1.5 | Efflux ratio (ER) in the presence of Ko143 ([3]; at all the tested concentrations, hCMEC/D3 monolayer, 1 μM Ko143): ~1 | transport by BCRP (conclusion of bidirectional transport assay) ([3]; hCMEC/D3 monolayer): transports | BPZ accumulation in hCMEC/D3 cells [5]: significantly increased | stimulation of BCRP ATPase activity (activation assay) [6]: significantly stimulated | Therapeutic plasma concentration range [4]: 1 to 10 µM
